# In US20210395327A1, “Growth Hormone-Releasing Hormone Antagonists and Uses Thereof” (United States Government As Represented By The Department …, priority 2019, published 2021):
# Non-standard residues stand in square brackets, D forms with d. Residues, ends and D or L forms follow the SMILES beside them. *: point of attachment. Phe(F5) = N[C@@H](Cc1c(F)c(F)c(F)c(F)c1F)C(=O)O; hArg = N=C(N)NCCCC[C@H](N)C(=O)O; 12Ado = NCCCCCCCCCCCC(=O)O; Nle = CCCC[C@H](N)C(=O)O; Orn = NCCC[C@H](N)C(=O)O; Abu = CC[C@H](N)C(=O)O; PhAc = O=C(Cc1ccccc1)*
# Assays:
# [1] = test system: PANC-1 pancreatic cancer cells; experiment: In vitro cell viability, PANC-1; assay type: cell-based, human; conditions: antagonist 5 μM for 72 h, cell proliferation assay; MIA602 = 1
# How it was run: (§1)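 Cells grown to ~60% confluence, serum-starved 24 h in 0.5% FBS, then treated with antagonists at 1, 2.5 or 5 μM or vehicle (0.1% DMSO) in quintuplicate for 72 h, medium replaced every 48 h. Viability read by MTS-type CellTiter 96 AQueous One assay; expressed as inhibitory potency relative to MIA602.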
# [2] = test system: KATOIII stomach cancer cells; experiment: In vitro cell viability, KATOIII; assay type: cell-based, human; conditions: antagonist 5 μM for 72 h, cell proliferation assay; MIA602 = 1
# How it was run: as §1
# [3] = test system: J82 urothelial cancer cells; experiment: In vitro cell viability, J82; assay type: cell-based, human; conditions: antagonist 5 μM for 72 h, cell proliferation assay; MIA602 = 1
# How it was run: as §1
# [4] = test system: ovarian cancer SK-OV-3 xenograft; experiment: Xenograft tumor growth in nude mice, SK-OV-3; assay type: in vivo; conditions: Table 4L, Ovarian Ca SK-OV-3, 7 weeks, 5 μg/day s.c.
# Experimental: The peptides' activity was compared with GHRH antagonist MIA-602. All statistical analyzses were performed from comparing GHRA antagonists to non-treated tumor (control).
# Peptides and chemicals. GHRH antagonists MIA-602 and AVR-GHRH antagonists (see Table 2 above) were synthesized by solid phase methods and purified by HPLC. The peptides were dissolved in DMSO and further diluted in 10% 1,2-propanediol. The final concentration of peptides was 50 µg/ml in 10% 1,2-propanediol containing 0.1% of DMSO.
# Cell culture. Human cancer cell lines including pancreatic (PANC-1 and CFPAC-1), lung (HCC827 and H460), stomach (NCI-N87), prostate (PC3), brest (MX-1 and HCC-1806), colorectal (HT-29), and ovarian (SK-OV-3 and OVCAR-3) were obtained from the American Type Culture Collection (ATCC) and cultured at 37° C. in a humidified 95% air/5% CO2 atmosphere in the medium recommended by ATCC.
# Xenograft models of human cancers in nude mice. Female athymic (NCr nu/nu) nude mice, 5- to 6-weeks-old, obtained from the Envigo labs (Tampa, Fla.), were housed in laminar airflow cabinets under pathogen-free conditions with a 12-h light/12-h dark schedule, and were fed autoclaved standard chow and water. To generate mice with xenografted tumors, tumor xenografts were initiated by subcutaneous (s.c.) injection of 107 human cancer cells into female nude mice. After about 4 weeks the resulting tumors were dissected and collected after removing necrosis tissues. The tumors were then cut into particles with size of 3 mm3 and transplanted s.c. by trocar needle into experimental animals. When tumors grew to the size of 50-60 mm3 (by volume), mice were randomized into groups and treated daily for 4-8 weeks by subcutaneous administration of 5 μg of GHRH antagonists MIA-602 or AVR-compounds (2-10 μg as indicated), or vehicle solutions (0.1% DMSO in 10% 1,2-propanediol) respectively. Tumor sizes were measured weekly.
# Statistical analysis. One-way ANOVA followed by Bonferroni comparison were performed. Data are expressed as Mean±SEM. To determine statistical significance between animal groups, two-tailed Student's t-test was conducted. Differences were considered significant when p<0.05.
# Results. […] FIG. 1A-N represents in vivo inhibition of tumor growth during the treatment with GHRH antagonist MIA-602 and selected AVR antagonists in nude mice xenografted with various human tumors including pancreatic cancer PANC-1 (FIG. 1A) and CFPAC-1 (FIG. 1I); lung cancer HCC827 (FIGS. 1B, C) and H460 (FIG. 1H); stomach cancer N87 (FIGS. 1D-F); colon cancer HT-29 (FIG. 1G); breast cancer MX-1 and HCC-1806 (FIGS. 1J, K); ovarian cancer SK-OV-3 and OVACAR-3 (FIGS. 1 L, M) and prostate cancer PC3 (FIG. 1N). See also Table 5.
smiles,measurement,setting,value
"CCCC[C@H](NC(=O)[C@@H](NC(=O)[C@H](CC(=O)O)NC(=O)[C@H](CCC(N)=O)NC(=O)[C@H](CC(C)C)NC(=O)[C@H](CC(C)C)NC(=O)[C@H](CCCN)NC(=O)[C@H](Cc1c[nH]cn1)NC(=O)[C@H](C)NC(=O)[C@H](CO)NC(=O)[C@H](CC(C)C)NC(=O)[C@H](CCC(N)=O)NC(=O)[C@H](CC)NC(=O)[C@H](CC(C)C)NC(=O)[C@@H](NC(=O)[C@H](CCCN)NC(=O)[C@H](Cc1c[nH]cn1)NC(=O)[C@H](Cc1ccc(OC)cc1)NC(=O)[C@H](CCCCNC(=N)N)NC(=O)[C@H](C)NC(=O)[C@@H](NC(=O)[C@H](Cc1c(F)c(F)c(F)c(F)c1F)NC(=O)[C@@H](NC(=O)[C@H](C)NC(=O)[C@H](CC(=O)O)NC(=O)[C@@H](CCCNC(=N)N)NC(=O)[C@H](Cc1ccc(O)cc1)NC(=O)CCCCCCCCCCCNC(=O)Cc1ccccc1)[C@@H](C)CC)[C@@H](C)O)C(C)C)[C@@H](C)CC)C(=O)N[C@H](CCCNC(=N)N)C(=O)N[C@@H](CCCCNC(=N)N)C(N)=O [MIA-602, PhAC-Ada, Tyr D-Arg, Asp, Ala, Ile, 5FPhe, Thr, Ala, Har, Tyr(Me), His, Orn, Val, Leu, Abu, Gin, Leu, Ser, Ala, His, Om, Leu, Leu, Gin, Asp, Ile; Nle, D-Arg, Har NH2, reference compound] ({PhAc-12Ado}-Y[dR]DAI[Phe(F5)]TA[hArg]Y(Me)H[Orn]VL[Abu]QLSAH[Orn]LLQDI[Nle][dR][hArg]-NH2)","relative inhibitory potency in comparison to MIA-602, Pancreatic Panc-1",[1],1
same,"relative inhibitory potency in comparison to MIA-602, Stomach KATOIII",[2],1
same,"relative inhibitory potency in comparison to MIA-602, Urothelial J82",[3],1
same,Tumor Size (mm3),[4],810.1 mm3
same,% Inhibition,[4]; vs control,38.0%
